In publication PMC4490784, “Compensatory induction of MYC expression by sustained CDK9 inhibition via a BRD4-dependent mechanism” (eLife, 2015):

Key:
Experiment in all cases: KINOMEscan binding assay
PFTAIRE2 = biological target: T1, PFTAIRE2 (Homo sapiens, UniProt Q96Q40); settings: read-out: % Retention on Solid Support
T1 construct: purchased DiscoveRx KINOMEscan
In short: (§1)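 Readout reflects displacement of an active site-directed ligand, scored across more than 400 kinases with i-CDK9 at 1 µM and at 10 µM.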

[1] = biological target: T2, JAK3(JH1domain-catalytic) (Homo sapiens, UniProt P52333); settings: read-out: % Retention on Solid Support
T2 construct: JAK3(JH1domain-catalytic); purchased DiscoveRx KINOMEscan
In short: as §1

CAMKK1 = biological target: T3, CAMKK1 (Homo sapiens, UniProt Q8N5S9); settings: read-out: % Retention on Solid Support
T3 construct: purchased DiscoveRx KINOMEscan
In short: as §1

PCTK3 = biological target: T4, PCTK3 (Homo sapiens, UniProt Q07002); settings: read-out: % Retention on Solid Support
T4 construct: purchased DiscoveRx KINOMEscan
In short: as §1

TRKA = biological target: T5, TRKA (Homo sapiens, UniProt P04629); settings: read-out: % Retention on Solid Support
T5 construct: purchased DiscoveRx KINOMEscan
In short: as §1

ADCK3 = biological target: T6, ADCK3 (Homo sapiens, UniProt Q8NI60); settings: read-out: % Retention on Solid Support
T6 construct: purchased DiscoveRx KINOMEscan
In short: as §1

STK35 = biological target: T7, STK35 (Homo sapiens, UniProt Q8TDR2); settings: read-out: % Retention on Solid Support
T7 construct: purchased DiscoveRx KINOMEscan
In short: as §1

S6K1 = S6K1 (Homo sapiens, UniProt P23443); settings: 1 µM i-CDK9; read-out: % Retention on Solid Support
In short: as §1

BMX = biological target: T8, BMX (Homo sapiens, UniProt P51813); settings: read-out: % Retention on Solid Support
T8 construct: purchased DiscoveRx KINOMEscan
In short: as §1

YANK3 = biological target: T9, YANK3 (Homo sapiens, UniProt Q86UX6); settings: read-out: % Retention on Solid Support
T9 construct: purchased DiscoveRx KINOMEscan
In short: as §1

CAMK2B = biological target: T10, CAMK2B (Homo sapiens, UniProt Q13554); settings: read-out: % Retention on Solid Support
T10 construct: purchased DiscoveRx KINOMEscan
In short: as §1

DLK = biological target: T11, DLK (Homo sapiens, UniProt Q12852)
T11 construct: purchased DiscoveRx KINOMEscan
In short: as §1

JNK1 = biological target: T12, JNK1 (Homo sapiens, UniProt P45983)
T12 construct: purchased DiscoveRx KINOMEscan
In short: as §1

HIPK3 = biological target: T13, HIPK3 (Homo sapiens, UniProt Q9H422); settings: read-out: % Retention on Solid Support
T13 construct: purchased DiscoveRx KINOMEscan
In short: as §1

FYN = biological target: T14, FYN (Homo sapiens, UniProt P06241); settings: read-out: % Retention on Solid Support
T14 construct: purchased DiscoveRx KINOMEscan
In short: as §1

PIK3CA(E545A) = biological target: T15, PIK3CA(E545A) (Homo sapiens, UniProt P42336, E545A); settings: read-out: % Retention on Solid Support
T15 construct: purchased DiscoveRx KINOMEscan
In short: as §1

[2] = biological target: T16, RSK1(Kin.Dom.2-C-terminal) (Homo sapiens, UniProt Q15418); settings: read-out: % Retention on Solid Support
T16 construct: RSK1(Kin.Dom.2-C-terminal); purchased DiscoveRx KINOMEscan
In short: as §1

HUNK = biological target: T17, HUNK (Homo sapiens, UniProt P57058); settings: read-out: % Retention on Solid Support
T17 construct: purchased DiscoveRx KINOMEscan
In short: as §1

ARK5 = biological target: T18, ARK5 (Homo sapiens, UniProt O60285)
T18 construct: purchased DiscoveRx KINOMEscan
In short: as §1

YANK1 = biological target: T19, YANK1 (Homo sapiens, UniProt Q8WU08); settings: 1 µM i-CDK9; read-out: % Retention on Solid Support
T19 construct: purchased DiscoveRx KINOMEscan
In short: as §1

BRSK2 = biological target: T20, BRSK2 (Homo sapiens, UniProt Q8IWQ3); settings: read-out: % Retention on Solid Support
T20 construct: purchased DiscoveRx KINOMEscan
In short: as §1

MARK3 = biological target: T21, MARK3 (Homo sapiens, UniProt P27448); settings: read-out: % Retention on Solid Support
T21 construct: purchased DiscoveRx KINOMEscan
In short: as §1

TAK1 = biological target: T22, TAK1 (Homo sapiens, UniProt O43318); settings: read-out: % Retention on Solid Support
T22 construct: purchased DiscoveRx KINOMEscan
In short: as §1

ERK2 = biological target: T23, ERK2 (Homo sapiens, UniProt P28482); settings: read-out: % Retention on Solid Support
T23 construct: purchased DiscoveRx KINOMEscan
In short: as §1

PRP4 = biological target: T24, PRP4 (Homo sapiens, UniProt Q13523); settings: read-out: % Retention on Solid Support
T24 construct: purchased DiscoveRx KINOMEscan
In short: as §1

MARK2 = biological target: T25, MARK2 (Homo sapiens, UniProt Q7KZI7); settings: read-out: % Retention on Solid Support
T25 construct: purchased DiscoveRx KINOMEscan
In short: as §1

MST4 = biological target: T26, MST4 (Homo sapiens, UniProt Q9P289); settings: read-out: % Retention on Solid Support
T26 construct: purchased DiscoveRx KINOMEscan
In short: as §1

FLT1 = biological target: T27, FLT1 (Homo sapiens, UniProt P17948); settings: read-out: % Retention on Solid Support
T27 construct: purchased DiscoveRx KINOMEscan
In short: as §1

IKK-epsilon = biological target: T28, IKK-epsilon (Homo sapiens, UniProt Q14164); settings: read-out: % Retention on Solid Support
T28 construct: purchased DiscoveRx KINOMEscan
In short: as §1

SNRK = biological target: T29, SNRK (Homo sapiens, UniProt Q9NRH2); settings: 1 µM i-CDK9; read-out: % Retention on Solid Support
T29 construct: purchased DiscoveRx KINOMEscan
In short: as §1

T27 sequence (P17948 27-1338): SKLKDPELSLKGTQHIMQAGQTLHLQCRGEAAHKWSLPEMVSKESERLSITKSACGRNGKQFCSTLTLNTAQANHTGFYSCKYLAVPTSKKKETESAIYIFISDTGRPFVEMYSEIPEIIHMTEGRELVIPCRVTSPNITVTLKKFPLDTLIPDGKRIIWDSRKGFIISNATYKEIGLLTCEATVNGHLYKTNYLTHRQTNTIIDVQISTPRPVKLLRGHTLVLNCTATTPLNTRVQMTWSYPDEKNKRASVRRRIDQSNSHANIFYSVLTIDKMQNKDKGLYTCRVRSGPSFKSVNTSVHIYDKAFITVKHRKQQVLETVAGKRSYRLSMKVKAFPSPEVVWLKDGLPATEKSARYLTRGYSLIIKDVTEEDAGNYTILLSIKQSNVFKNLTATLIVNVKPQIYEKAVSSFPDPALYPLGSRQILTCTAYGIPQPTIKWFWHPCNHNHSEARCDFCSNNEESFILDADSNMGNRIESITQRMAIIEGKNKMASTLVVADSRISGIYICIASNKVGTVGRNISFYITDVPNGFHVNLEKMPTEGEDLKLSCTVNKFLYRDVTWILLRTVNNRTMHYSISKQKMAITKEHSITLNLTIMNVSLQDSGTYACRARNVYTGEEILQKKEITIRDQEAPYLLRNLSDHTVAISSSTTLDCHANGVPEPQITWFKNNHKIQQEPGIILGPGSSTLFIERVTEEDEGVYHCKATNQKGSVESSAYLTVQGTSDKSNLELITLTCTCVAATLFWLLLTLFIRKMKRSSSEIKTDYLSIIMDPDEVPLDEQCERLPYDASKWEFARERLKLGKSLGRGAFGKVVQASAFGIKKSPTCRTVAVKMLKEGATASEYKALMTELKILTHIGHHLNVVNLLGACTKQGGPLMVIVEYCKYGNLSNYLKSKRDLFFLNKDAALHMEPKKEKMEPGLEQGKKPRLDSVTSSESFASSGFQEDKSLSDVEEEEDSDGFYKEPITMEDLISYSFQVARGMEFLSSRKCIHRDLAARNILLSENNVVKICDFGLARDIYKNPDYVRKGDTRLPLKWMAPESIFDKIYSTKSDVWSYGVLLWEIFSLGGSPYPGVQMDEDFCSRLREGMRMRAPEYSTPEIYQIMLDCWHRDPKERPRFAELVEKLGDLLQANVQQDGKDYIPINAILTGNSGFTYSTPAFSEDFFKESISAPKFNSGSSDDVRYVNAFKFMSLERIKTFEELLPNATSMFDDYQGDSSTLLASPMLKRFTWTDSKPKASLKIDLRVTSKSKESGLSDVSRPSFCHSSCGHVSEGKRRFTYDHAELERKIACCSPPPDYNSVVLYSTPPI
T25 sequence (Q7KZI7 whole entry): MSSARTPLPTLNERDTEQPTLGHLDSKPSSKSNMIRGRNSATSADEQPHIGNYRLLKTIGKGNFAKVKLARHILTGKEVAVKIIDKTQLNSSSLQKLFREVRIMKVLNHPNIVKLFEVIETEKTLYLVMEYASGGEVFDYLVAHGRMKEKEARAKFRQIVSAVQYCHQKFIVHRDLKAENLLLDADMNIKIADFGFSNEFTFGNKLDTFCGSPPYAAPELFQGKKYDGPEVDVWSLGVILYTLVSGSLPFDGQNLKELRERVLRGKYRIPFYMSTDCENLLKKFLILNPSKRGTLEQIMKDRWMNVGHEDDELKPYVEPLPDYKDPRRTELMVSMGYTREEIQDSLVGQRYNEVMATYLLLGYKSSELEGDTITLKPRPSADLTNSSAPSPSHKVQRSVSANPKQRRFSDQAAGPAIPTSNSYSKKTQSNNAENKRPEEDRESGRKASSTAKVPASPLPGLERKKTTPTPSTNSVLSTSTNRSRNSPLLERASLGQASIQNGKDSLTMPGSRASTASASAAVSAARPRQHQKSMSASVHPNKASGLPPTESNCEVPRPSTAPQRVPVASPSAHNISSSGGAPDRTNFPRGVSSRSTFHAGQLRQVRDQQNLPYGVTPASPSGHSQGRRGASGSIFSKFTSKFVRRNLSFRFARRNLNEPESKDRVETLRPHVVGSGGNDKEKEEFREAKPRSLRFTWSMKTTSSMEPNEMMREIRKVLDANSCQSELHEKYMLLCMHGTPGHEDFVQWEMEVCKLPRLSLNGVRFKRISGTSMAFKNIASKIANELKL
T20 sequence (Q8IWQ3 whole entry): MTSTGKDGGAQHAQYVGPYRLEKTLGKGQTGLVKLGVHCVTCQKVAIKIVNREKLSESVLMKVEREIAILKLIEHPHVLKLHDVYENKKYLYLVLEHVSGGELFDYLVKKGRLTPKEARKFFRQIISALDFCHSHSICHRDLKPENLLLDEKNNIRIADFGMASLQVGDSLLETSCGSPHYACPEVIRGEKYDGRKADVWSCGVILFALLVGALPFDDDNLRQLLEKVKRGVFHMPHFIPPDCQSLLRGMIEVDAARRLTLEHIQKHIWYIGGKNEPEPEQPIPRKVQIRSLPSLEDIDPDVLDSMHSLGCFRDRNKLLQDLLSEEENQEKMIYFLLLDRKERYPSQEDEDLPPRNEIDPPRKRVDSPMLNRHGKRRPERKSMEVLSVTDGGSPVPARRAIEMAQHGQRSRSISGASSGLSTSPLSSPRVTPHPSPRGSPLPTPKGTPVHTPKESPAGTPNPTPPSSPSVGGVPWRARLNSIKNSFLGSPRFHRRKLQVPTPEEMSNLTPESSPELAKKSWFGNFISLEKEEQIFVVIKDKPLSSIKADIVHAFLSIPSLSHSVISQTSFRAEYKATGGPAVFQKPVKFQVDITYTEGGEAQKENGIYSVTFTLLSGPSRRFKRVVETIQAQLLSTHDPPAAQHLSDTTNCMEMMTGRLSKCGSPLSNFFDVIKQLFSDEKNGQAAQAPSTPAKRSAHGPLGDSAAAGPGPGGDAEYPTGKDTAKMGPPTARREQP
T22 sequence (O43318 whole entry): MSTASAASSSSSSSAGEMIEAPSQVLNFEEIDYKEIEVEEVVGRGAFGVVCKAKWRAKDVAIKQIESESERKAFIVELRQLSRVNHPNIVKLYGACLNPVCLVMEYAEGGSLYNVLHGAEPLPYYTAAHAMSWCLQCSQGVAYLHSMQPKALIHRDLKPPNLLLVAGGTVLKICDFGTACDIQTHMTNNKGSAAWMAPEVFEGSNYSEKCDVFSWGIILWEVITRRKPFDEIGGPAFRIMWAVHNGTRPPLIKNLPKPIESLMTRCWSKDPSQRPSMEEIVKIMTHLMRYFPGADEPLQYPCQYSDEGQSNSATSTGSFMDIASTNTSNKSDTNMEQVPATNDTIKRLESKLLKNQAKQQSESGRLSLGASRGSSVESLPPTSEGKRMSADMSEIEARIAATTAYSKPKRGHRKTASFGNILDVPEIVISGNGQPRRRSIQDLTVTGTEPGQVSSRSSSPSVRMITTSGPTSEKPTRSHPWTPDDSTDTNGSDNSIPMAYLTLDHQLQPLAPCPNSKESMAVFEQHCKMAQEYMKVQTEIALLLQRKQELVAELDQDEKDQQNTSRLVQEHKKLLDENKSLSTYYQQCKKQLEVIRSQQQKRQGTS
T14 sequence (P06241 whole entry): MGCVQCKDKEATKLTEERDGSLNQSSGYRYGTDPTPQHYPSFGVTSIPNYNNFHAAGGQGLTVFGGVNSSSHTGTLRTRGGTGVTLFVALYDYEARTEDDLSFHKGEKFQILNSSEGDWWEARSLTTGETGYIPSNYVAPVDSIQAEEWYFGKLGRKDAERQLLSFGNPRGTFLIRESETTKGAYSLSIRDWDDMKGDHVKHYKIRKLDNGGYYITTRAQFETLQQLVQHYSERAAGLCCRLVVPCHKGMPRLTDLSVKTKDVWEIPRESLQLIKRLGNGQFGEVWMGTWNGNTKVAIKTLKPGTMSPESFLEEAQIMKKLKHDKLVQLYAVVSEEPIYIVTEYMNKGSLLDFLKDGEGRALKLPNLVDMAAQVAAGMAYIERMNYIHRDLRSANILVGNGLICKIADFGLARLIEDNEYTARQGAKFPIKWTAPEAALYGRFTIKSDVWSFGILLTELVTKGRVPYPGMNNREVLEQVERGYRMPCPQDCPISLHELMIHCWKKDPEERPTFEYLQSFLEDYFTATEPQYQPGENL
T2 sequence (P52333 813-1124 limits assumed): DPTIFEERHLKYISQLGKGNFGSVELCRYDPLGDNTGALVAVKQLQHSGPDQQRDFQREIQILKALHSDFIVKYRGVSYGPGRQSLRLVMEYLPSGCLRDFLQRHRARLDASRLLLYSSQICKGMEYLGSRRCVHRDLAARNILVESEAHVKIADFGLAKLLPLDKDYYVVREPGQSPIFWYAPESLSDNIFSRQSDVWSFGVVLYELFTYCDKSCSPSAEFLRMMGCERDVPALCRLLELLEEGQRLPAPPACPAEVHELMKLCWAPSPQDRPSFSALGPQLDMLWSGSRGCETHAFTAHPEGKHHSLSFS
T1 sequence (Q96Q40 whole entry): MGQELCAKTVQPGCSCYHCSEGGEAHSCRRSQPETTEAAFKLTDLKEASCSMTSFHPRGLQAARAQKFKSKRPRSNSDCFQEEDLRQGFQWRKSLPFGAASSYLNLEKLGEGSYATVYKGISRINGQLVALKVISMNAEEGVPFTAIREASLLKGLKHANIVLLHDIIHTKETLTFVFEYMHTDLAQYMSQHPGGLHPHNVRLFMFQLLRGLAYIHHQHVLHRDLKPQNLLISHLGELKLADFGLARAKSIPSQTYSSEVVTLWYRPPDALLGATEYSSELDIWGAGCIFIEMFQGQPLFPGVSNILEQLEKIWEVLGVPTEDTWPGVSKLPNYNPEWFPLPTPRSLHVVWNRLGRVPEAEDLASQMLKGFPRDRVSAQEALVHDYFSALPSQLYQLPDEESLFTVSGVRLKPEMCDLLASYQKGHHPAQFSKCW

`N[C@H]1CC[C@H](Nc2cc(-c3cccc(NCc4cccc(F)c4)n3)c(Cl)cn2)CC1` [i-CDK9, N2′-(trans-4-aminocyclohexyl)-5′-chloro-N6-(3-fluorobenzyl)-2,4′-bipyridine-2′,6-diamine] showed a remaining binding at 1 µM (PFTAIRE2; 1 µM i-CDK9) of 72%, a remaining binding at 10 µM (PFTAIRE2; 10 µM i-CDK9) of 13% and a remaining binding at 1 µM ([1]; 1 µM i-CDK9) of 100%. The remaining binding at 10 µM ([1]; 10 µM i-CDK9) was 100%, the remaining binding at 1 µM (CAMKK1; 1 µM i-CDK9) was 100% and the remaining binding at 10 µM (CAMKK1; 10 µM i-CDK9) was 100%. The remaining binding at 1 µM (PCTK3; 1 µM i-CDK9) was 33%, the remaining binding at 10 µM (PCTK3; 10 µM i-CDK9) was 0.15% and the remaining binding at 1 µM (TRKA; 1 µM i-CDK9) was 100%. For the same compound, the remaining binding at 10 µM (TRKA; 10 µM i-CDK9) was 89%, the remaining binding at 1 µM (ADCK3; 1 µM i-CDK9) was 100% and the remaining binding at 10 µM (ADCK3; 10 µM i-CDK9) was 86%. The remaining binding at 1 µM (STK35; 1 µM i-CDK9) was 100%, the remaining binding at 10 µM (STK35; 10 µM i-CDK9) was 91% and the remaining binding at 1 µM (S6K1) was 100%. For the same compound, the remaining binding at 1 µM (BMX; 1 µM i-CDK9) was 96%, the remaining binding at 10 µM (BMX; 10 µM i-CDK9) was 81% and the remaining binding at 1 µM (YANK3; 1 µM i-CDK9) was 89%. It also gave a remaining binding at 10 µM (YANK3; 10 µM i-CDK9) of 50%, a remaining binding at 1 µM (CAMK2B; 1 µM i-CDK9) of 100% and a remaining binding at 10 µM (CAMK2B; 10 µM i-CDK9) of 81%. For the same compound, the “% Retention on Solid Support” value (DLK; 1 µM i-CDK9) was 100%, the “% Retention on Solid Support” value (DLK; 10 µM i-CDK9) was 71% and the “% Retention on Solid Support” value (JNK1; 1 µM i-CDK9) was 80%. The “% Retention on Solid Support” value (JNK1; 10 µM i-CDK9) was 34%, the remaining binding at 1 µM (HIPK3; 1 µM i-CDK9) was 100% and the remaining binding at 10 µM (HIPK3; 10 µM i-CDK9) was 89%. The remaining binding at 1 µM (FYN; 1 µM i-CDK9) was 69%, the remaining binding at 10 µM (FYN; 10 µM i-CDK9) was 100% and the remaining binding at 1 µM (PIK3CA(E545A); 1 µM i-CDK9) was 100%. For the same compound, the remaining binding at 10 µM (PIK3CA(E545A); 10 µM i-CDK9) was 100%, the remaining binding at 1 µM ([2]; 1 µM i-CDK9) was 93% and the remaining binding at 10 µM ([2]; 10 µM i-CDK9) was 84%. For the same compound, the remaining binding at 1 µM (HUNK; 1 µM i-CDK9) was 86%, the remaining binding at 10 µM (HUNK; 10 µM i-CDK9) was 52% and the “% Retention on Solid Support” value (ARK5; 1 µM i-CDK9) was 72%. The “% Retention on Solid Support” value (ARK5; 10 µM i-CDK9) was 100%, the remaining binding at 1 µM (YANK1) was 100% and the remaining binding at 1 µM (BRSK2; 1 µM i-CDK9) was 93%. It also gave a remaining binding at 10 µM (BRSK2; 10 µM i-CDK9) of 88%, a remaining binding at 1 µM (MARK3; 1 µM i-CDK9) of 94% and a remaining binding at 10 µM (MARK3; 10 µM i-CDK9) of 71%. The remaining binding at 1 µM (TAK1; 1 µM i-CDK9) was 100%, the remaining binding at 10 µM (TAK1; 10 µM i-CDK9) was 82% and the remaining binding at 1 µM (ERK2; 1 µM i-CDK9) was 100%. The remaining binding at 10 µM (ERK2; 10 µM i-CDK9) was 100%, the remaining binding at 1 µM (PRP4; 1 µM i-CDK9) was 14% and the remaining binding at 10 µM (PRP4; 10 µM i-CDK9) was 100%. The remaining binding at 1 µM (MARK2; 1 µM i-CDK9) was 76%, the remaining binding at 10 µM (MARK2; 10 µM i-CDK9) was 86% and the remaining binding at 1 µM (MST4; 1 µM i-CDK9) was 100%. For the same compound, the remaining binding at 10 µM (MST4; 10 µM i-CDK9) was 100%, the remaining binding at 1 µM (FLT1; 1 µM i-CDK9) was 100% and the remaining binding at 10 µM (FLT1; 10 µM i-CDK9) was 81%. It also gave a remaining binding at 1 µM (IKK-epsilon; 1 µM i-CDK9) of 95%, a remaining binding at 10 µM (IKK-epsilon; 10 µM i-CDK9) of 100% and a remaining binding at 1 µM (SNRK) of 64%.
